Source: the supplement of paper PMC10627819

Key:
B. subtilis 168 [1] = assay: fitness (endpoint OD595 vs no drug) (fraction); higher = more growth
Outline: (§1)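 In 384-well plates at 37 °C, cultures began at OD595 0.01 in 30 µl, with 55 µl used for S. pneumoniae. OD595 readings every 30 min for 14 h were corrected by the first reading. Fitness divides the stationary-phase transition optical density by the robust mean of no-drug control wells. The result is capped at 1.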

S. aureus DSM 20231 [2] = assay: as above
Outline: as §1

B. subtilis 168 [3] = assay: Bliss interaction score (quartile over a dose matrix) (fitness difference); higher = more antagonism (negative = synergy)
Outline: (§2)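 Combination data were used to infer fitness under each single drug. Fitness is the OD595 at entry into stationary phase divided by the robust mean of the plate's no-drug wells, with a cap of 1. The Bliss score is the observed minus the expected product fitness, summarised by quartiles over technical, biological and donor/recipient replicates.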

S. aureus DSM 20231 [4] = assay: as above
Outline: as §2

S. aureus Newman = assay: as above
Outline: as §2

S. pneumoniae D39V = assay: as above
Outline: as §2
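Throughout, for Bliss interaction score (quartile over a dose matrix): first quartile when negative (synergy) and third quartile when positive (antagonism).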

COc1cc(Cc2cnc(N)nc2N)cc(OC)c1OC [Trimethoprim] + CC1=C\[C@@H](O)CC(=O)Cc2nc(co2)C(=O)N2CCC=C2C(=O)O[C@H](C(C)C)[C@H](C)/C=C/C(=O)NC\C=C\1 [Virginiamycin M1]
fitness, one replicate
Conditions	partner 0.0625 µg/mL	partner 0.125 µg/mL	partner 0.25 µg/mL	partner 0.5 µg/mL	partner 1 µg/mL
B. subtilis 168 [1], first compound 0.1 µg/mL	0.85	0.855	0.991	–	–
B. subtilis 168 [1], first compound 0.125 µg/mL	0.738	0.722	0.71	–	–
B. subtilis 168 [1], first compound 0.2 µg/mL	0.755	0.808	0.865	–	–
B. subtilis 168 [1], first compound 0.4 µg/mL	0.57	0.483	0.576	–	–
B. subtilis 168 [1], first compound 1 µg/mL	0.509	0.267	0.282	–	–
B. subtilis 168 [1], first compound 2 µg/mL	0.408	0.285	0.377	–	–
S. aureus DSM 20231 [2], first compound 0.125 µg/mL	0.597	0.715	–	0.7	0.541
S. aureus DSM 20231 [2], first compound 0.25 µg/mL	–	–	–	0.573	0.626
S. aureus DSM 20231 [2], first compound 0.5 µg/mL	–	–	–	0.155	0.204

fitness
Conditions	first compound 0.125 µg/mL	first compound 0.25 µg/mL	first compound 0.5 µg/mL	first compound 1 µg/mL
B. subtilis 168 [1], partner 0.0625 µg/mL	–	–	0.585	–
B. subtilis 168 [1], partner 0.125 µg/mL	–	0.704	0.471	–
B. subtilis 168 [1], partner 0.25 µg/mL	–	–	0.557	–
S. aureus DSM 20231 [2], partner 0.0625 µg/mL	–	0.576	0.0684	0.0383
S. aureus DSM 20231 [2], partner 0.125 µg/mL	–	0.584	0.0768	0.0445
S. aureus DSM 20231 [2], partner 0.25 µg/mL	0.682	0.618	0.119	0.0595

Conditions	Bliss interaction score
B. subtilis 168 [3]	0.0852
S. aureus DSM 20231 [4]	-0.0966
S. aureus Newman	0.0354
S. pneumoniae D39V	0.0652

COc1cc(Cc2cnc(N)nc2N)cc(OC)c1OC [Trimethoprim] + CN[C@H](CC(C)C)C(=O)N[C@H]1C(=O)N[C@@H](CC(N)=O)C(=O)N[C@H]2C(=O)N[C@H]3C(=O)N[C@H](C(=O)N[C@H](C(=O)O)c4cc(O)cc(O)c4-c4cc3ccc4O)[C@H](O)c3ccc(c(Cl)c3)Oc3cc2cc(c3O[C@@H]2O[C@H](CO)[C@@H](O)[C@H](O)[C@H]2O[C@H]2C[C@](C)(N)[C@H](O)[C@H](C)O2)Oc2ccc(cc2Cl)[C@H]1O [Vancomycin]
S. aureus DSM 20231 [2], first compound 0.125 µg/mL, one replicate
Conditions	fitness
partner 0.1875 µg/mL	0.667
partner 0.375 µg/mL	0.898
partner 0.75 µg/mL	0.984

fitness, S. aureus DSM 20231 [2]
Conditions	first compound 0.25 µg/mL	first compound 0.5 µg/mL	first compound 1 µg/mL
partner 0.1875 µg/mL	0.604	0.0644	0.0331
partner 0.375 µg/mL	0.613	–	0.0412
partner 0.75 µg/mL	0.62	–	0.0581

Conditions	Bliss interaction score
B. subtilis 168 [3]	0.0634
S. aureus DSM 20231 [4]	-0.0623
S. aureus Newman	-0.0768
S. pneumoniae D39V	0.119
